Legend:
protamine = experiment: Isothermal titration calorimetry, POM into protamine; type: binding; details: 10 mM Mes, pH 5.5, 298.15 K
Description: (§1) All experiments were performed with a VP-ITC MicroCalorimeter from MicroCal, Int,. at atmospheric pressure and 298.15 K. Solutions were degassed and thermostatic prior the titration experiments in a ThermoVac accessory. A constant volume of POM ([PVW11]^4- or [SiMoW11]^4-) (10 µL per injection) was injected into the oligopeptide solution (heptaArg, protamine, polyArg or heptaLys) in 10 mM Mes, pH 5.5 to determine the apparent binding affinity of [PVW11]^4- and [SiMoW11]^4- with the oligopeptides. Dilution heats were determined by titration of the POM into buffer and subtracted from the reaction heat. The neat reaction heat was fitted with Origin 7.0 software by using the "one-set-of-sites" model to obtain the complex stability constant (Ka) and molar reaction enthalpy (ΔH°). The free energy (ΔG°) and entropy changes (ΔS°) were obtained according to the relation: ΔG° = - R TInKa = ΔH°-TΔS°.

heptaArg = experiment: Isothermal titration calorimetry, POM into heptaArg; type: binding; details: 10 mM Mes, pH 5.5, 298.15 K
Description: as §1

polyArg = experiment: Isothermal titration calorimetry, POM into polyArg; type: binding; details: 10 mM Mes, pH 5.5, 298.15 K
Description: as §1

CHO-K1 cells = experiment: Confocal imaging of FITC-Arg8 cellular uptake; type: cell-based; details: 4 µM FITCArg8, 5 and 10 µM carrier, 1 h, fixed cells, preliminary
Description: For confocal microscopy experiments, CHO-K1 cells were seeded into 12-well plates (Eppendorf) at a density of 1×10^5 cells/well (per 1 mL) and incubated for 24 h in Ham's F-12 containing 10 % (v/v) fetal bovine serum at 37 °C in a 5 % CO2. The cells were washed twice with PBS, and then incubated with POMs and FITC-Arg8 (4 µM) for 1 h at 37 °C, cells were washed twice with Hank's Balanced Salt solution containing 100 µg/mL heparin, twice again with PBS and fixed with 1 mL cold 4 % paraformaldehyde for 20 min. The cells were rewashed twice with PBS and subsequently the nuclei were stained with 2 µg/mL DAPI for 10 min at room temperature before imaging. Cells were imaged by LSM 980 confocal laser scanning microscope. Images were processed with Zen 3.2 software (Zeiss).

[1] = U-tube transport experiments (CF transport through chloroform layer); details: CF 100 µM, POM 50 µM, heptaArg 10 µM
Description: The U-tubes were house-made, similar to those of Rebek and Matile consisting in a small beaker with a central glass barrier, separating the two aqueous layers, cis (sampling phase) and trans (receiving phase), but allowing an interface chloroform layer below the cis and trans phases. 3 mL CHCl3 are placed into the U-tube and 1 mL of the cis (combinations of carrier (POM), cargo (heptaArg) and CF in buffer) and trans (1 mL buffer) phases were added. The organic phase was stirred at 700 rpm at room temperature. Aliquots (25 µL) from the trans phase were taken at different times, 400 µL of buffer were added and measured by fluorescence.
In the U-tube experiments, the trans phase contained only buffer, and the cis phase is loaded with combinations of CF, carrier (POM) and cargo (heptaArg). Aliquots of the trans phase are taken and evaluated by fluorescence at different times. The trans phase is initially (t= 0) nonfluorescent, but the transport of CF from the cis phase through the chloroform barrier leads to a fluorescence signal for successful transport. […] In the ternary mixture, however, as expected, highly efficient transport is observed. This is consistent with the transport of a POM•heptaArg•CF complex through the organic phase. […]

Row | Substance | Protamine Ka/ 10^7 (protamine) | HeptaArg Ka/ 10^7 (heptaArg) | PolyArg Ka/ 10^7 (polyArg) | FITCArg8 uptake (confocal fluorescence microscopy) (CHO-K1 cells) | carrier transport through hydrophobic bulk phase (U-tube) [1]
1 | K4[α-P^VV^VW^VI11O40]·4H2O [[PVW11]^4-] | 25 ± 9 10^7 M-1 | 5.7 ± 0.7 10^7 M-1 | 3.5 ± 0.6 10^7 M-1 | strong diffuse fluorescence | can seize and transport a hydrophilic cargo even through a hydrophobic bulk phase
2 | K4[α-Si^IVMo^VIW^VI11O40]·24H2O [[SiMoW11]^4-] | 1.7 ± 0.3 10^7 M-1 | 0.6 10^7 M-1 | 1.6 ± 0.2 10^7 M-1 | strong diffuse fluorescence | can seize and transport a hydrophilic cargo even through a hydrophobic bulk phase

Reference: patent publication EP4483904A1, “POLYOXOMETALATES AS MEMBRANE CARRIERS” (Universität Wien, priority 2023, dated 2025)
